Source: patent US8192962B2, “Processes for detecting toxic substances” (Daikin Industries, Ltd., priority 2001, dated 2012)

System: Energy system protein genes
Assay: DNA chip mRNA expression in yeast, energy system protein genes (Table 4)
Type: cell-based, Saccharomyces cerevisiae S288C
Procedure, shortened: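 S. cerevisiae S288C grown at 25° C in YPD were exposed in log phase for two hours to one toxic chemical at a growth-inhibiting, non-lethal concentration; untreated cells served as control. Poly(A) mRNA was reverse-transcribed with Cy3/Cy5-dUTP and hybridized to a whole-genome yeast DNA chip at 65° C for over 12 hours; values are fluorescence ratios versus untreated.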

CN(C)C(=S)SSC(=S)N(C)C [(10), Tetramethylthiuram disulfide]
The level of expressed mRNA in the presence of chemical substance/The level of expressed mRNA in the absence of chemical substance (yeast gene YJL216C, cells incubated two hours with the chemical substance): 1.3
The level of expressed mRNA in the presence of chemical substance/The level of expressed mRNA in the absence of chemical substance (yeast gene YJR009C): 1.3
The level of expressed mRNA in the presence of chemical substance/The level of expressed mRNA in the absence of chemical substance (yeast gene YJR048W): 1.5
The level of expressed mRNA in the presence of chemical substance/The level of expressed mRNA in the absence of chemical substance (yeast gene YJR121W, cells incubated two hours with the chemical substance): 1.3
The level of expressed mRNA in the presence of chemical substance/The level of expressed mRNA in the absence of chemical substance (yeast gene YJR155W): 18.8
The level of expressed mRNA in the presence of chemical substance/The level of expressed mRNA in the absence of chemical substance (yeast gene YKL016C, cells incubated two hours with the chemical substance): 1.8
The level of expressed mRNA in the presence of chemical substance/The level of expressed mRNA in the absence of chemical substance (yeast gene YKL060C, cells incubated two hours with the chemical substance): 0.8
The level of expressed mRNA in the presence of chemical substance/The level of expressed mRNA in the absence of chemical substance (yeast gene YKL141W, cells incubated two hours with the chemical substance): 0.5
The level of expressed mRNA in the presence of chemical substance/The level of expressed mRNA in the absence of chemical substance (yeast gene YKL148C, cells incubated two hours with the chemical substance): 1.7
The level of expressed mRNA in the presence of chemical substance/The level of expressed mRNA in the absence of chemical substance (yeast gene YKR009C, cells incubated two hours with the chemical substance): 2.1
The level of expressed mRNA in the presence of chemical substance/The level of expressed mRNA in the absence of chemical substance (yeast gene YKR058W, cells incubated two hours with the chemical substance, 25° C., YPD medium): 1.2
The level of expressed mRNA in the presence of chemical substance/The level of expressed mRNA in the absence of chemical substance (yeast gene YKR097W): 3.3
The level of expressed mRNA in the presence of chemical substance/The level of expressed mRNA in the absence of chemical substance (yeast gene YLL041C, cells incubated two hours with the chemical substance): 0.8
The level of expressed mRNA in the presence of chemical substance/The level of expressed mRNA in the absence of chemical substance (yeast gene YLR038C, cells incubated two hours with the chemical substance): 0.9
The level of expressed mRNA in the presence of chemical substance/The level of expressed mRNA in the absence of chemical substance (yeast gene YLR044C, cells incubated two hours with the chemical substance): 1.2
The level of expressed mRNA in the presence of chemical substance/The level of expressed mRNA in the absence of chemical substance (yeast gene YLR134W, cells incubated two hours with the chemical substance): 0.7
The level of expressed mRNA in the presence of chemical substance/The level of expressed mRNA in the absence of chemical substance (yeast gene YLR258W, cells incubated two hours with the chemical substance): 1.3
The level of expressed mRNA in the presence of chemical substance/The level of expressed mRNA in the absence of chemical substance (yeast gene YLR284C, cells incubated two hours with the chemical substance): 0.9
The level of expressed mRNA in the presence of chemical substance/The level of expressed mRNA in the absence of chemical substance (yeast gene YLR295C, cells incubated two hours with the chemical substance, 25° C., YPD medium): 1.2
The level of expressed mRNA in the presence of chemical substance/The level of expressed mRNA in the absence of chemical substance (yeast gene YLR304C, cells incubated two hours with the chemical substance): 2.2
The level of expressed mRNA in the presence of chemical substance/The level of expressed mRNA in the absence of chemical substance (yeast gene YLR345W): 4.0
The level of expressed mRNA in the presence of chemical substance/The level of expressed mRNA in the absence of chemical substance (yeast gene YLR354C, cells incubated two hours with the chemical substance): 0.9
The level of expressed mRNA in the presence of chemical substance/The level of expressed mRNA in the absence of chemical substance (yeast gene YLR377C, cells incubated two hours with the chemical substance): 1.6
The level of expressed mRNA in the presence of chemical substance/The level of expressed mRNA in the absence of chemical substance (yeast gene YLR395C, cells incubated two hours with the chemical substance): 0.9
The level of expressed mRNA in the presence of chemical substance/The level of expressed mRNA in the absence of chemical substance (yeast gene YML087C): 4.9
The level of expressed mRNA in the presence of chemical substance/The level of expressed mRNA in the absence of chemical substance (yeast gene YML120C, cells incubated two hours with the chemical substance): 1.5
The level of expressed mRNA in the presence of chemical substance/The level of expressed mRNA in the absence of chemical substance (yeast gene YML129C, cells incubated two hours with the chemical substance): 2.2
The level of expressed mRNA in the presence of chemical substance/The level of expressed mRNA in the absence of chemical substance (yeast gene YMR073C, cells incubated two hours with the chemical substance): 1.2
The level of expressed mRNA in the presence of chemical substance/The level of expressed mRNA in the absence of chemical substance (yeast gene YMR118C): 1.4
The level of expressed mRNA in the presence of chemical substance/The level of expressed mRNA in the absence of chemical substance (yeast gene YMR205C, cells incubated two hours with the chemical substance): 0.8
The level of expressed mRNA in the presence of chemical substance/The level of expressed mRNA in the absence of chemical substance (yeast gene YMR261C, cells incubated two hours with the chemical substance): 1.3
The level of expressed mRNA in the presence of chemical substance/The level of expressed mRNA in the absence of chemical substance (yeast gene YMR267W, cells incubated two hours with the chemical substance, 25° C., YPD medium): 0.8
The level of expressed mRNA in the presence of chemical substance/The level of expressed mRNA in the absence of chemical substance (yeast gene YMR323W, cells incubated two hours with the chemical substance): 1.3
The level of expressed mRNA in the presence of chemical substance/The level of expressed mRNA in the absence of chemical substance (yeast gene YNL071W): 1.2
The level of expressed mRNA in the presence of chemical substance/The level of expressed mRNA in the absence of chemical substance (yeast gene YNL202W, cells incubated two hours with the chemical substance): 1.1
The level of expressed mRNA in the presence of chemical substance/The level of expressed mRNA in the absence of chemical substance (yeast gene YNL241C): 7.4
The level of expressed mRNA in the presence of chemical substance/The level of expressed mRNA in the absence of chemical substance (yeast gene YNL331C): 36.3
The level of expressed mRNA in the presence of chemical substance/The level of expressed mRNA in the absence of chemical substance (yeast gene YOL086C, cells incubated two hours with the chemical substance): 1.2
The level of expressed mRNA in the presence of chemical substance/The level of expressed mRNA in the absence of chemical substance (yeast gene YOL157C): 4.8
The level of expressed mRNA in the presence of chemical substance/The level of expressed mRNA in the absence of chemical substance (yeast gene YOL165C): 23.3
The level of expressed mRNA in the presence of chemical substance/The level of expressed mRNA in the absence of chemical substance (yeast gene YOR136W): 3.4
The level of expressed mRNA in the presence of chemical substance/The level of expressed mRNA in the absence of chemical substance (yeast gene YOR142W, cells incubated two hours with the chemical substance): 1.5
The level of expressed mRNA in the presence of chemical substance/The level of expressed mRNA in the absence of chemical substance (yeast gene YOR178C, cells incubated two hours with the chemical substance): 1.7
The level of expressed mRNA in the presence of chemical substance/The level of expressed mRNA in the absence of chemical substance (yeast gene YOR388C, cells incubated two hours with the chemical substance): 1.4
The level of expressed mRNA in the presence of chemical substance/The level of expressed mRNA in the absence of chemical substance (yeast gene YPL031C, cells incubated two hours with the chemical substance): 1.4
The level of expressed mRNA in the presence of chemical substance/The level of expressed mRNA in the absence of chemical substance (yeast gene YPL061W, cells incubated two hours with the chemical substance): 0.7
The level of expressed mRNA in the presence of chemical substance/The level of expressed mRNA in the absence of chemical substance (yeast gene YPL088W): 2.8
The level of expressed mRNA in the presence of chemical substance/The level of expressed mRNA in the absence of chemical substance (yeast gene YPL171C): 50.6
The level of expressed mRNA in the presence of chemical substance/The level of expressed mRNA in the absence of chemical substance (yeast gene YPL240C): 2.6
The level of expressed mRNA in the presence of chemical substance/The level of expressed mRNA in the absence of chemical substance (yeast gene YPL262W, cells incubated two hours with the chemical substance): 5.8
The level of expressed mRNA in the presence of chemical substance/The level of expressed mRNA in the absence of chemical substance (yeast gene YPL275W, cells incubated two hours with the chemical substance): 1.2
The level of expressed mRNA in the presence of chemical substance/The level of expressed mRNA in the absence of chemical substance (yeast gene YPL276W, cells incubated two hours with the chemical substance): 1.8
The level of expressed mRNA in the presence of chemical substance/The level of expressed mRNA in the absence of chemical substance (yeast gene YPR048W, cells incubated two hours with the chemical substance): 2.1
The level of expressed mRNA in the presence of chemical substance/The level of expressed mRNA in the absence of chemical substance (yeast gene YPR184W, cells incubated two hours with the chemical substance): 3.2
